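In this assay, cells in 96-well plates receive the compound at five concentrations for 48 hours. Endpoints are linearly interpolated between the surrounding concentrations. Here, GI50 denotes the concentration required for 50% inhibition of growth. Definition used: TGI = concentration required for complete inhibition of growth.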
Experiments:
Assay in all cases: growth of human tumour cells (NCI), 48 h
SK-MEL-2 melanoma = system: SK-MEL-2 melanoma
SN12C renal = system: SN12C renal
HCT-15 colon = system: HCT-15 colon
SF-268 CNS = system: SF-268 CNS
CCRF-CEM leukemia = system: CCRF-CEM leukemia
ACHN renal = system: ACHN renal
A498 renal = system: A498 renal
NCI-H522 lung = system: NCI-H522 lung
MDA-MB-435 = system: MDA-MB-435
MALME-3M melanoma = system: MALME-3M melanoma

SMILES | GI50 (SK-MEL-2 melanoma) | TGI (SK-MEL-2 melanoma) | GI50 (SN12C renal) | TGI (SN12C renal) | GI50 (HCT-15 colon) | TGI (HCT-15 colon) | GI50 (SF-268 CNS) | TGI (SF-268 CNS) | GI50 (CCRF-CEM leukemia) | TGI (CCRF-CEM leukemia) | GI50 (ACHN renal) | TGI (ACHN renal) | GI50 (A498 renal) | TGI (A498 renal) | GI50 (NCI-H522 lung) | TGI (NCI-H522 lung) | GI50 (MDA-MB-435) | TGI (MDA-MB-435) | TGI (MALME-3M melanoma) | GI50 (MALME-3M melanoma)
Cc1ccccc1C1N=C2Oc3ccccc3C=C2C(=O)N1 (centres undefined) | 0.535 µM | > 100 µM | 8.33 µM | > 100 µM | 2.05 µM | > 100 µM | 9.2 µM | > 100 µM | 4.63 µM | > 100 µM | 2.2 µM | > 100 µM | 0.347 µM | 2.58 µM | 0.556 µM | 3.32 µM | 0.244 µM | 0.824 µM |  | 
CC1(C)OC2OC(/C=C/[N+](=O)[O-])C3OC(C)(C)OC3C2O1 (centres undefined) |  | 32.6 µM |  | 31.1 µM |  | 5.43 µM |  | 39.5 µM |  | > 75.7 µM |  | 28.8 µM |  | 47.1 µM |  | 3.36 µM |  |  | 10.8 µM | 
O=C(NC(=Nc1ccccc1)SCCSC(=Nc1ccccc1)NC(=O)c1ccccc1)c1ccccc1 |  | > 100 µM |  | > 100 µM |  | > 100 µM |  | > 100 µM |  | > 100 µM |  | > 100 µM |  | > 100 µM |  | 73 µM |  |  | > 100 µM | 
COc1cc(CC2c3cc(OC)c(OC)cc3CCN2C)c(C(=O)O)cc1OC (centres undefined) |  | > 100 µM |  | > 100 µM |  |  |  | > 100 µM |  | > 100 µM |  | > 100 µM |  | > 100 µM |  | > 100 µM |  |  | > 100 µM | 
CCC[CH2][Sn]1([CH2]CCC)[O]C(=O)c2cccnc2[S]1 | 2.11 µM | 4.63 µM | 3.8 µM | 13.2 µM | 2.21 µM | 4.98 µM |  |  | 0.058 µM | 1.02 µM | 3.51 µM | 11.7 µM | 2.37 µM | 5.3 µM | 0.348 µM | 1.57 µM |  |  | 4.31 µM | 1.49 µM
CC[C@H]1CNC(=O)CC1CC(=O)OC (some centres undefined) |  | > 100 µM |  | > 100 µM |  | > 100 µM |  | > 100 µM |  |  |  | > 100 µM |  | > 100 µM |  | > 100 µM |  |  | > 100 µM | 
N#CCC1CCN(c2nc(Nc3ccc(N4CCC(O)CC4)cc3)c3c(=O)[nH]ncc3n2)CC1 |  |  | 0.391 µM | > 100 µM | 0.428 µM | > 100 µM | 1.2 µM | > 100 µM | 1.01 µM | > 100 µM | 0.473 µM | > 100 µM | 0.342 µM | 1.74 µM | > 100 µM | > 100 µM | 0.628 µM | > 100 µM |  | 
CC1SC(c2ccc(OCc3ccccc3)cc2)N(NC(=O)C(O)(c2ccccc2)c2ccccc2)C1=O (centres undefined) | 4.36 µM | 18.8 µM | 3.95 µM | 13.8 µM | 2.74 µM | 12.7 µM | 3.66 µM | 15 µM | 2.1 µM | 5.69 µM | 2.74 µM | 9.38 µM | 3.34 µM | 13.7 µM |  |  | 3.52 µM | 13.8 µM | 10.5 µM | 2.15 µM
N#CC1(C2CC(=O)N(c3ccccc3)C2=O)CCCCC1=O (centres undefined) |  |  |  | > 100 µM |  | > 100 µM |  | > 100 µM |  | > 100 µM |  | > 100 µM |  |  |  |  |  |  | > 100 µM | 
C/C(=N\NC(N)=S)c1ccc(Oc2ccccc2)cc1 |  |  |  | 38.4 µM |  | 22.5 µM |  |  |  | 37.2 µM |  | 42.7 µM |  | 29.5 µM |  |  |  |  |  | 
C=CC(C)(C)[C@@]12CC3C(=O)N[C@@H](Cc4ccccc4)C(=O)N3[C@@H]1N(C(C)=O)c1ccccc12 (some centres undefined) |  | > 100 µM |  | > 100 µM |  | > 100 µM |  |  |  | > 100 µM |  | > 100 µM |  | > 100 µM |  |  |  |  | > 100 µM | 
O=C(CC1(O)C(=O)Nc2ccc(Br)cc21)c1cccc([N+](=O)[O-])c1 (centres undefined) |  | > 100 µM |  | > 100 µM |  | > 100 µM |  | > 100 µM |  | 99.6 µM |  | > 100 µM |  |  |  | 67.2 µM |  |  | > 100 µM | 
CCCCP1(=O)C=CC(Cl)=C(C)C1 (centres undefined) |  | > 100 µM |  | > 100 µM |  | > 100 µM |  | > 100 µM |  | > 100 µM |  | > 100 µM |  | > 100 µM |  | > 100 µM |  |  | > 100 µM | 
C=CN(C(=O)N1CCN(c2cc3c(cc2F)c(=O)c(C(=O)O)cn3C2CC2)CC1)c1nc(-c2ccc(C)cc2)cs1 |  |  | 3.46 µM | > 100 µM | 2.96 µM | > 100 µM | 4.02 µM | > 100 µM | 0.438 µM | > 100 µM | 3.38 µM | > 100 µM |  |  | 2.27 µM | 6.23 µM |  |  | > 100 µM | 3.35 µM
N#Cc1cccc(C2SCc3nc4ccccc4n32)c1 (centres undefined) |  | > 100 µM |  | > 100 µM |  |  |  | > 100 µM |  | > 100 µM |  | > 100 µM |  | > 100 µM |  | > 100 µM |  |  | > 100 µM | 
CCn1c(O)c(C(=O)Nc2cccs2)c(=O)n(CC)c1=S |  | 32.8 µM |  | 70.8 µM |  | 41.7 µM |  | 44.4 µM |  | > 100 µM |  | 63.2 µM |  | 36.8 µM |  | 38.4 µM |  |  | 38.6 µM | 
O=C(Nc1cc(Cl)ccc1Cl)c1cc2ccccc2oc1=O |  | > 100 µM |  | > 100 µM |  | > 100 µM |  |  |  | > 100 µM |  | > 100 µM |  |  |  | > 100 µM |  |  | 90.3 µM | 
O=C1C(=C2C(=O)c3ccccc3[N+]2=O)N([O-])c2ccccc21 |  |  |  |  |  |  |  | 88.5 µM |  | 63.8 µM |  | 91.4 µM |  | 73.8 µM |  |  |  |  |  | 
CC1CC(=O)C(CC(=O)O)[C@H]1C(C(=O)C(=O)Nc1cc(Cl)ccc1Cl)[N+](=O)[O-] (some centres undefined) |  |  |  | > 100 µM |  | > 100 µM |  | > 100 µM |  | > 100 µM |  | > 100 µM |  | > 100 µM |  | > 100 µM |  |  |  | 
COc1ccc(Cc2c3cc(OC)c(OC)cc3cc[n+]2C)cc1 |  | > 45.8 µM |  | > 28.3 µM |  | > 52.8 µM |  | > 27.5 µM |  | > 100 µM |  | > 49.9 µM |  | > 100 µM |  | > 85.9 µM |  |  | > 60.3 µM | 
CCCCc1c2c([n+]([O-])c3c1CCCC3)CCCC2 |  |  |  | > 100 µM |  | > 100 µM |  | > 100 µM |  | > 100 µM |  | 43.1 µM |  |  |  | 5.33 µM |  |  | > 100 µM | 
Cc1cc(Br)ccc1N=NC1C(=O)ON=C1c1ccccc1 (centres undefined) |  | > 100 µM |  | > 100 µM |  |  |  | > 100 µM |  |  |  | > 100 µM |  | > 100 µM |  | > 100 µM |  |  | > 100 µM | 
